Laboratory results taken from US12440493B2, “Combination therapy for treating cancer comprising substituted piperazines” (Eli Lilly and Company, priority 2020, dated 2025).
“And” between values parts separate entries of the source, which are not always exact repeats. Equal values may be shown once.

Tests used:
2-HG production = assay: Plasma 2-HG inhibition (LC-MS metabolite analysis in plasma of AML PDx model); format: in vivo, human
[1] = system: IDH1(R132H) primary human AML cells; assay: AML cell differentiation in blood (flow cytometry, % hCD33+hCD11b+ of hCD45+ cells), human AML PDx models in NSG mice; format: in vivo; settings: for AML cell differentiation (% hCD33 + hCD11b+ (of hCD45+ cells)): 1 mg/kg Azacitidine, (QDx5, rest2)X2, 14 days off, each value one animal, 1 mg/kg
Procedure: (§1) Compounds and Formulation. For in vivo studies, each test article is prepared at an appropriate concentration with vehicle. […] Compound A is prepared fresh at the appropriate concentrations with vehicle every 7 days and stored at 4° C. between doses. […] Cytarabine is prepared fresh weekly by dilution with sterile saline from stock solution of Cytarabine (injection 20 mg/mL, (Pfizer injectables')). Azacitidine (Sigma, Lot #MKBR7212) is formulated in sterile water and is prepared fresh daily immediately before dosing. In vivo human AML PDx models. […] Two models are used in the studies: […] As needed, splenocytes from tumor-bearing mice are used to propagate and expand the models, as described. Each test article is prepared as described above at an appropriate concentration with vehicle to give animals the doses tested in this study at a dosing volume of 10 μL/gram body weight. Mice receiving Compound A (PO, QD) are treated at the indicated doses for the duration of the study. The combination agents are dosed as follows: […] Treated mice are assessed in comparison to vehicle treated and naïve (non-tumor bearing) control mice. Body weight is recorded twice per week. […] AML PDx model propagation. […] Spleens are processed and splenocytes isolated as described below. Two hundred μL per subject of the splenocyte prep is injected IV (intravenous, tail vein) into recipient NSG mice. […] Once engraftment is confirmed, the mice are monitored biweekly until ready to be put on study. […] Submandibular blood is collected. Spleen/Splenocyte Processing and Prep. After excision, a spleen is weighed, and […] is placed in a standard sterile 15 mL polypropylene conical tube containing PBS, and placed on ice. […] The spleen is placed in ice cold sterile PBS in a 15 mL collection tube. The spleen is removed from the collection tube and placed in a 100 micron 50 mL conical tube cell strainer (BD Falcon #352360). The spleen is processed by gentle rubbing of the spleen tissue against the surface of the cell strainer with the end of a 5 mL syringe plunger in a circular motion. The surface of the strainer is rinsed with 10 mL room temperature sterile DPBS (HyClone SH30028) 3 times during the process. […] The cell pellet is collected by centrifugation (300×g) and washed three times with 30 mL sterile DPBS. The cells are counted and resuspended in DPBS at the desired implant concentration. Bone Marrow Collection. […] Flow cytometry analysis of human white cells. Submandibular blood samples from in vivo studies are collected. Fluor-conjugated antibody stains are added according to the manufacturer's instructions (anti-human CD33-PE (clone WM53, BD Cat #555450), anti-human CD14-APC (clone MφpP9, BD Cat #340436), anti-human CD15-V450 (clone HI98, BD Cat #561584), anti-human CD117-BV421 (clone YB5.B8, BD Cat #562434), anti-human […]7 (clone ICRF44, BD Cat #557754), anti-human […]7 (clone HI30, BD Cat #557748), and anti-human CD3-FITC (clone SK7, BD Cat #340542)). The samples are incubated for 30 minutes at room temperature, protected from light. After the incubation, 1.5 mL 1×BD Lyse/Fix (37° C., (BD #558049)) is added to each sample and incubated for 12 minutes at room temperature. The tubes are centrifuged at 300×g for 7 minutes. BD Lyse/Fix solution is aspirated and the cell pellet washed with stain/wash buffer 3 times (1 wash step consisted of: pellet resuspended in 3 mL stain/wash buffer, centrifuged at 300×g, aspirated wash). Fixed cells are then resuspended in 300 to 400 μL stain/wash buffer. Samples are analyzed on a Becton Dickinson FACSVerse Flow cytometer (Cat #651155 Serial #Z6511550447) using standard flow cytometry principles and techniques. Samples are analyzed on the same day as they are stained and fixed. Population gating and data analysis of percent population are performed in the FACSuite software on the FACSVerse cytometer. Percent population values from the data analysis are plotted in Graphpad Prism or in JMP13. […]

[2] = system: IDH1(R132H) primary human AML cells; assay: AML clearance in peripheral blood (flow cytometry, % hCD33+hCD45+ of total white cells), human AML PDx models in NSG mice; format: in vivo; settings: for AML clearance (% hCD33 + hCD45+ (of total white cells)): 1 mg/kg Azacitidine, (QDx5, rest2)X2, 14 days off, each value one animal, 1 mg/kg
Procedure: as §1

[3] = system: IDH1(R132H) primary human AML cells; assay: Bone marrow AML clearance (flow cytometry), human AML PDx models in NSG mice; format: in vivo
Procedure: as §1

[4] = 1 mg/kg Azacitidine, IP, (QDx5, rest 2)x2 14 days off, each line one animal
[5] = 1 mg/kg Azacitidine, (QD × 5, rest 2)x2, 14 days off, each line one animal

Structure (SMILES): Nc1ncn([C@@H]2O[C@H](CO)[C@@H](O)[C@H]2O)c(=O)n1 [Azacitidine, reference compound]
- % Inhibition of 2-HG (plasma) (2-HG production; [4]): 32.923% and 22.691% and 56.872% and 51.81% and 75.405% and 73.207% and 49.201%
- Naive Subtracted 2-HG (plasma) (2-HG production; [4]): 4.603 µM and 5.305 µM and 2.959 µM and 3.307 µM and 1.688 µM and 1.838 µM and 3.486 µM
- Plasma 2-HG (2-HG production; [4]): 7.539 µM and 8.241 µM and 5.896 µM and 6.243 µM and 4.624 µM and 4.775 µM and 6.422 µM
- % plasma 2-HG (treatment group value) (2-HG production; group G: azacitidine (1 mg/kg), vehicle 100%): 48%
- AML cell differentiation (% hCD33 + hCD11b+ (of hCD45+ cells)) ([1]; Treatment day 2): 10.07% and 14.27% and 13.08% and 12.37% and 5.55% and 9.38% and 9.55%
- AML cell differentiation (% hCD33 + hCD11b+ (of hCD45+ cells)) ([1]; Treatment day 15): 12.12% and 16.08% and 11.64% and 18.36% and 13.75% and 11.72% and 18.15%
- AML cell differentiation (% hCD33 + hCD11b+ (of hCD45+ cells)) ([1]; Treatment day 28): 21.14% and 21.62% and 19.07% and 20.9% and 16.95% and 20.64% and 21.18%
- AML cell differentiation (% hCD33 + hCD11b+ (of hCD45+ cells)) ([1]; Treatment day 43): 10.64% and 9.94% and 11.58% and 6.98% and 6.67% and 12.03% and 10.48%
- AML cell differentiation (% hCD33 + hCD11b+ (of hCD45+ cells)) ([1]; Treatment day 58): 14.45% and 9.99% and 10.78% and 11.33% and 11.72% and 13.55%
- AML cell differentiation (% hCD33 + hCD11b+ (of hCD45+ cells)) ([1]; Treatment day 77): 10.12% and 10.78% and 8.78% and 6.76% and 10.92% and 11.76%
- AML cell differentiation (% hCD33 + hCD11b+ (of hCD45+ cells)) ([1]; Treatment day 98): 10.31% and 14.59% and 17.5% and 8.29% and 16.64%
- AML cell differentiation (% hCD33 + hCD11b+ (of hCD45+ cells)) ([1]; Treatment day −19): 1.53% and 0% (2×) and 2.59% and 0.27% and 2.72% and 1.16%
- % AML cell differentiation (treatment group value) ([1]; day 43, group G: azacitidine (1 mg/kg), vehicle 15%): 10%
- AML clearance (% hCD33 + hCD45+ (of total white cells)) ([2]; Treatment day 2): 23.43% and 20.98% and 19.8% and 15.03% and 22.26% and 10.88% and 16.63%
- AML clearance (% hCD33 + hCD45+ (of total white cells)) ([2]; Treatment day 15): 33.19% and 44.55% and 30.95% and 35.67% and 30.39% and 28.23% and 30.75%
- AML clearance (% hCD33 + hCD45+ (of total white cells)) ([2]; Treatment day 28): 13.99% and 12.05% and 15.33% and 16.77% and 13.73% and 22.64% and 22.81%
- AML clearance (% hCD33 + hCD45+ (of total white cells)) ([2]; Treatment day 43): 32.23% and 23.27% and 18.57% and 27.48% and 11.38% and 25.34% and 20.44%
- AML clearance (% hCD33 + hCD45+ (of total white cells)) ([2]; Treatment day 58): 11.92% and 32.12% and 11.16% and 7.63% and 9.47% and 13.4%
- AML clearance (% hCD33 + hCD45+ (of total white cells)) ([2]; Treatment day 77): 12.91% and 26.37% and 20.18% and 12.58% and 15.11% and 11.64%
- AML clearance (% hCD33 + hCD45+ (of total white cells)) ([2]; Treatment day 98): 62.54% and 70.18% and 65.61% and 37.53% and 38.23%
- AML clearance (% hCD33 + hCD45+ (of total white cells)) ([2]; Treatment day −19): 7.65% and 4.33% and 3.14% and 6.28% and 3.24% and 2.46% and 2.87%
- % peripheral blood AML cells (treatment group value) ([2]; day 43, group G: azacitidine (1 mg/kg), vehicle 71%): 22%
- Bone Marrow AML Clearance: % hCD33 + hCD45+ (% of white cells) [3, 5]: 49.81% and 60.61% and 72.4% and 43.12%
- Bone Marrow AML Clearance: % hCD45+ (% of white cells) [3, 5]: 49.85% and 61% and 72.52% and 43.15%
- % human AML cells in bone marrow (of white cells; lower = more clearance) ([3]; group G: azacitidine (1 mg/kg), vehicle 94%): 55%
